Laboratory results from patent publication US20040018235A1, “Controlled release pharmaceutical composition” (KOWA CO., LTD, priority 2002, published 2004).

Assay: Absorption sites of pitavastatin in rat (in situ loop test)
Assay type: in vivo

Absorption percentage (duodenum, 0.5 h): 65.9 ± 2.1%
Absorption percentage (duodenum, 1 h): 60.3 ± 10.2%
Absorption percentage (large intestine, 0.5 h): 34.4 ± 3.7%
Absorption percentage (large intestine, 1 h): 51.6 ± 6.7%
Percentage of absorption in the small intestine relative to that in the duodenum (see Table 1): about one-third
Absorption percentage (small intestine, 0.5 h): 23.1 ± 3.8%
Absorption percentage (small intestine, 1 h): 21.3 ± 3.0%
Absorption percentage (stomach, 0.5 h): 8.6 ± 1.1%
Absorption percentage (stomach, 1 h): 14.4 ± 1.6%
SMILES: O=C(O)C[C@H](O)C[C@H](O)/C=C/c1c(C2CC2)nc2ccccc2c1-c1ccc(F)cc1 [pitavastatin, (+)-(3R,5S,6E)-7-[2-cyclopropyl-4-(4-fluorophenyl)-3-quinolyl]-3,5-dihydroxy-6-heptenoic acid]
